Results from patent US12180167B1, “6-[4,4-bis(4-bromophenyl)-2,5-dioxoimidazolidin-1-yl]hexanoic acid as an antimicrobial compound” (KING FAISAL UNIVERSITY, priority 2024, dated 2024).

Legend:
Assay type in all cases: cell-based
Details in all cases: after 10, 20, 40 and 60 minutes at all dilutions 1:100, 1:200, 1:400, 1:800
Candida albicans = test: Antimicrobial testing by agar dilution, Candida albicans
Method: (§1) The antimicrobial properties of the 6-[4,4-bis(4-bromophenyl)-2,5-dioxoimidazolidin-1-yl]hexanoic acid were studied by the method of agar dilution. Test solutions of each compound was prepared in concentration of 1% using dimethylformamide as a solvent then they are diluted in physiological solution to obtain the final experimental dilutions 1:100, 1:200, 1:400, 1:800. The effect of these substances are compared with furacillin in a controllable study. The testing microbes used were gram positive bacteria Staphylococcus aereus, gram negative bacteria Escherichia Coli, Pseudomonas aeruginosa and Candida albicans fungi were taken. The experiments used for this survey were meat-pentonlu agar (EPA) for cultivation of bacteria and Saburo environment for fungi. Each experiment used 1 ml of test solution on each plate 500 min. Add 2 drops of emulsified with microbes feel. All experimental samples were taken from the agar after 10, 20, 40, 60 minutes in the environment on the basis of Patrk planted. Bacteria were cultivated at a temperature of 37° C. for 1 day and the mushroom was kept in a thermostat for 2 hours at a temperature of 28° C. in the. Then results were checked.

Escherichia Coli = test: Antimicrobial testing by agar dilution, E. Coli
Method: as §1

Pseudomonas aeruginosa = test: Antimicrobial testing by agar dilution, Ps. aeruginosa
Method: as §1

Staphylococcus aereus = test: Antimicrobial testing by agar dilution, St. Aereus
Method: as §1

O=C(O)CCCCCN1C(=O)NC(c2ccc(Br)cc2)(c2ccc(Br)cc2)C1=O [6-[4,4-bis(4-bromophenyl)-2,5-dioxoimidazolidin-1-yl]hexanoic acid]
higher inhibition activity: inhibition activity, Candida albicans (Candida albicans) | inhibition activity, Escherichia Coli (Escherichia Coli) | inhibition activity, Pseudomonas aeruginosa (Pseudomonas aeruginosa) | inhibition activity, Staphylococcus aereus (Staphylococcus aereus)
